Here are results for 14 compounds from EP0091519A1, “Topical acylaminophenols” (Johnson & Johnson Products Inc., priority 1982, dated 1983).

One test deals with arachidonic acid-induced epidermal proliferation. Put plainly: Arachidonic acid-induced epidermal proliferation in guinea pig ear skin (3H-thymidine labelling, liquid scintillation counting). It is filed as in vivo. The note with it: 0.56% drug in propylene glycol/ethanol (30:70), 25 µl topical on ear once daily for four days after 1% AA; mean ± S.E. Here is the method: (§1) The effect of selected compositions on cutaneous inflammation caused by topical application of arachidonic acid was evaluated. In addition to inflammation, the proliferative response of the epidermis treated with arachidonic acid and the compositions was evaluated. Fourteen acylaminophenols were studied. The drugs were dissolved in propylene glycol plus ethanol (30:70) and were used at 1% concentrations unless otherwise stated. Fourteen groups of five guinea pigs each served as the experimental subjects. The dorsal skin of both ears was treated once daily for four days (9:00 am) with 25 µl 1% solution of AA in propylene glycol/ethanol (30/70). Immediately after this application, one ear of each guinea pig was randomly chosen for application of 25 µl of the test compound, while the contralateral ear received the vehicle, alone. During the four-day experimental period, DNA synthesized was labeled by continuous administration of a radioactive'precursor, ^3H-thymidine (3 i.p. injections/day of 10µCi each). Erythema developing in response to topical AA was measured daily on a subjective scale of 0 to 3; where 0 = none,1= mild, 2 = moderate, and 3 = intense. The average erythema scores were plotted as a function of time, and areas under the response curves were determined for expression of total erythema. On the fifth day, animals were killed and six mm diameter circular samples of dorsal skin from the central portion of the treatment sites were harvested and solubilized in NCS® solubilizer. These tissue solutions were acidified and a simple fluor (diphenyloxazole in toluene) was added for determination of radioactivity by liquid scintillation counting. Radioactivity expressed as counts-per-minute (cpm) correlate with the amount of proliferative activity in the epidermis.
Regarding `CCCCCCCCCCCCCCCC(=O)Nc1ccc(O)cc1` [4-n-hexadecanoylaminophenol, reference compound], the “cpm S.E.” value is 3275±463 cpm.

Still in this test, the particulars now being: 1% drug in propylene glycol/ethanol (30:70), 25 µl topical on ear once daily for four days after 1% AA; 6 mm skin sample on fifth day; mean ± S.E.
With `O=C(Nc1ccc(O)cc1)c1ccccc1O`, the “cpm S.E.” value is reported as 1532± 91 cpm.

Turning to `O=C(Nc1ccc(O)cc1)c1ccccc1` [4-benzoylaminophenol, reference compound], the “cpm S.E.” value came to 2214±316 cpm.

Take `CCCC(=O)Nc1ccc(O)cc1` [4-n-butyroylaminophenol, reference compound]: the “cpm S.E.” value was 2680±360 cpm.

On to `CCCCCCCCCC(=O)Nc1ccc(O)cc1` [4-n-decanoylaminophenol], for which the “cpm S.E.” value came to 1311± 48 cpm.

In the case of `CCCCCCCCCCCC(=O)Nc1ccc(O)cc1` [4-n-dodecanoylaminophenol], the “cpm S.E.” value amounted to 2487±368 cpm.

Consider `CCCCCCC(=O)Nc1ccc(O)cc1` [4-n-heptanoylaminophenol], for which the “cpm S.E.” value was determined as 1435± 77 cpm.

Consider `CCCCCC(=O)Nc1ccc(O)cc1` [4-n-hexanoylaminophenol], for which the “cpm S.E.” value is 1488±104 cpm.

For `CCCCCCCCC(=O)Nc1ccc(O)cc1` [4-n-nonanoylaminophenol], the “cpm S.E.” value is 1472±135 cpm.

As to `CCCCCCCC(=O)Nc1ccc(O)cc1` [4-n-octanoylaminophenol], the “cpm S.E.” value was found to be 1589±361 cpm.

Take `CCCCCCCCCCCCCC(=O)Nc1ccc(O)cc1` [4-n-tetradecanoylaminophenol, reference compound]: the “cpm S.E.” value was found to be 1681±296 cpm.

As to `CCCCCCCCCCC(=O)Nc1ccc(O)cc1` [4-n-undecanoylaminophenol], the “cpm S.E.” value was 1380±205 cpm.

Take `CCC(=O)Nc1ccc(O)cc1` [4-propionylaminophenol, reference compound]: the “cpm S.E.” value worked out at 1777±251 cpm.

`CC(=O)Nc1ccc(O)cc1` [Acetaminophen, acetamidophenol, reference compound]: the “cpm S.E.” value is listed as 3140±346 cpm.

Still in this test, the particulars now being: Cavia porcellus; 1% drug topical; versus contralateral vehicle-treated ear; * statistically significant, + not significant due to variability; read-out: % Re-duction (cpm, proliferation).
For the compound `O=C(Nc1ccc(O)cc1)c1ccccc1O`, the inhibition in vivo at 1 % was determined as 23.3%.

For `O=C(Nc1ccc(O)cc1)c1ccccc1` [4-benzoylaminophenol, reference compound], the inhibition in vivo at 1 % turned out to be 4.2%.

Consider `CCCC(=O)Nc1ccc(O)cc1` [4-n-butyroylaminophenol, reference compound], for which the inhibition in vivo at 1 % turned out to be 27.8%.

For the compound `CCCCCCCCCC(=O)Nc1ccc(O)cc1` [4-n-decanoylaminophenol], the inhibition in vivo at 1 % amounted to 37.5%.

Take `CCCCCCCCCCCC(=O)Nc1ccc(O)cc1` [4-n-dodecanoylaminophenol]: the inhibition in vivo at 1 % was found to be 29%.

Consider `CCCCCCC(=O)Nc1ccc(O)cc1` [4-n-heptanoylaminophenol], for which the inhibition in vivo at 1 % was 27.3%.

Turning to `CCCCCC(=O)Nc1ccc(O)cc1` [4-n-hexanoylaminophenol], the inhibition in vivo at 1 % was found to be 28.3%.

Regarding `CCCCCCCCC(=O)Nc1ccc(O)cc1` [4-n-nonanoylaminophenol], the inhibition in vivo at 1 % turned out to be 20.9%.

Regarding `CCCCCCCC(=O)Nc1ccc(O)cc1` [4-n-octanoylaminophenol], the inhibition in vivo at 1 % came out at 39.1%.

Turning to `CCCCCCCCCCCCCC(=O)Nc1ccc(O)cc1` [4-n-tetradecanoylaminophenol, reference compound], the inhibition in vivo at 1 % is 15.1%.

As for `CCCCCCCCCCC(=O)Nc1ccc(O)cc1` [4-n-undecanoylaminophenol], the inhibition in vivo at 1 % is 37.3%.

On to `CCC(=O)Nc1ccc(O)cc1` [4-propionylaminophenol, reference compound], for which the inhibition in vivo at 1 % is 2.6%.

In the case of `CC(=O)Nc1ccc(O)cc1` [Acetaminophen, acetamidophenol, reference compound], the inhibition in vivo at 1 % was determined as 8%.

Staying with this test, now noted: topical application, 1% unless otherwise stated.
Consider `O=C(Nc1ccc(O)cc1)c1ccccc1O`, for which the “effect on AA-induced proliferation (in words)” value is reported as “showed activity”.

For the compound `O=C(Nc1ccc(O)cc1)c1ccccc1` [4-benzoylaminophenol, reference compound], the “effect on AA-induced proliferation (in words)” value is “inactive”.

Regarding `CCCC(=O)Nc1ccc(O)cc1` [4-n-butyroylaminophenol, reference compound], the “effect on AA-induced proliferation (in words)” value is “significantly inhibited”.

`CCCCCCCCCC(=O)Nc1ccc(O)cc1` [4-n-decanoylaminophenol]: the “effect on AA-induced proliferation (in words)” value is recorded as “good activity”.

For `CCCCCCCCCCCC(=O)Nc1ccc(O)cc1` [4-n-dodecanoylaminophenol], the “effect on AA-induced proliferation (in words)” value is listed as “good activity”.

Consider `CCCCCCC(=O)Nc1ccc(O)cc1` [4-n-heptanoylaminophenol], for which the “effect on AA-induced proliferation (in words)” value is given as “good activity”.

Consider `CCCCCCCCCCCCCCCC(=O)Nc1ccc(O)cc1` [4-n-hexadecanoylaminophenol, reference compound], for which the “effect on AA-induced proliferation (in words)” value is reported as “without substantial effect”.

As to `CCCCCC(=O)Nc1ccc(O)cc1` [4-n-hexanoylaminophenol], the “effect on AA-induced proliferation (in words)” value is “good activity”.

Consider `CCCCCCCCC(=O)Nc1ccc(O)cc1` [4-n-nonanoylaminophenol], for which the “effect on AA-induced proliferation (in words)” value was “good activity”.

Consider `CCCCCCCC(=O)Nc1ccc(O)cc1` [4-n-octanoylaminophenol], for which the “effect on AA-induced proliferation (in words)” value was “good activity”.

Consider `CCCCCCCCCCCCCC(=O)Nc1ccc(O)cc1` [4-n-tetradecanoylaminophenol, reference compound], for which the “effect on AA-induced proliferation (in words)” value is “without substantial effect”.

For `CCCCCCCCCCC(=O)Nc1ccc(O)cc1` [4-n-undecanoylaminophenol], the “effect on AA-induced proliferation (in words)” value is recorded as “good activity”.

With `CCC(=O)Nc1ccc(O)cc1` [4-propionylaminophenol, reference compound], the “effect on AA-induced proliferation (in words)” value is “without substantial effect”.

As to `CC(=O)Nc1ccc(O)cc1` [Acetaminophen, acetamidophenol, reference compound], the “effect on AA-induced proliferation (in words)” value is listed as “no significant effect”.

For a further test, the system named is arachidonic acid-induced erythema. Put plainly: Arachidonic acid-induced erythema in guinea pig ear skin (subjective score 0 to 3, area under response curve). Format: in vivo. The note with it: 0.56% drug topical; area under curve of average erythema score (0 to 3) over four days. Here is the method:
as §1
In the case of `CCCCCCCCCCCCCCCC(=O)Nc1ccc(O)cc1` [4-n-hexadecanoylaminophenol, reference compound], the “Total Erythema” value was 4.8.

The test is the same for the next values; noted with them: 1% drug topical; area under curve of average erythema score (0 to 3) over four days.
`O=C(Nc1ccc(O)cc1)c1ccccc1O`: the “Total Erythema” value is listed as 3.2.

As to `O=C(Nc1ccc(O)cc1)c1ccccc1` [4-benzoylaminophenol, reference compound], the “Total Erythema” value came out at 3.8.

As for `CCCC(=O)Nc1ccc(O)cc1` [4-n-butyroylaminophenol, reference compound], the “Total Erythema” value turned out to be 4.6.

Regarding `CCCCCCCCCC(=O)Nc1ccc(O)cc1` [4-n-decanoylaminophenol], the “Total Erythema” value worked out at 2.0.

In the case of `CCCCCCCCCCCC(=O)Nc1ccc(O)cc1` [4-n-dodecanoylaminophenol], the “Total Erythema” value came to 3.8.

On to `CCCCCCC(=O)Nc1ccc(O)cc1` [4-n-heptanoylaminophenol], for which the “Total Erythema” value turned out to be 1.8.

For `CCCCCC(=O)Nc1ccc(O)cc1` [4-n-hexanoylaminophenol], the “Total Erythema” value was 1.9.

Consider `CCCCCCCCC(=O)Nc1ccc(O)cc1` [4-n-nonanoylaminophenol], for which the “Total Erythema” value came to 2.1.

As to `CCCCCCCC(=O)Nc1ccc(O)cc1` [4-n-octanoylaminophenol], the “Total Erythema” value is on record as 2.7.

In the case of `CCCCCCCCCCCCCC(=O)Nc1ccc(O)cc1` [4-n-tetradecanoylaminophenol, reference compound], the “Total Erythema” value was determined as 3.8.

On to `CCCCCCCCCCC(=O)Nc1ccc(O)cc1` [4-n-undecanoylaminophenol], for which the “Total Erythema” value was 2.1.

For the compound `CCC(=O)Nc1ccc(O)cc1` [4-propionylaminophenol, reference compound], the “Total Erythema” value was found to be 5.5.

With `CC(=O)Nc1ccc(O)cc1` [Acetaminophen, acetamidophenol, reference compound], the “Total Erythema” value is on record as 5.2.

The same test, now with this note: Cavia porcellus; 1% drug topical; versus contralateral vehicle-treated ear; read-out: % Re-duction (Total Erythema).
As for `O=C(Nc1ccc(O)cc1)c1ccccc1O`, the inhibition in vivo at 1 % was 41.8%.

As to `O=C(Nc1ccc(O)cc1)c1ccccc1` [4-benzoylaminophenol, reference compound], the inhibition in vivo at 1 % was 20.8%.

Consider `CCCC(=O)Nc1ccc(O)cc1` [4-n-butyroylaminophenol, reference compound], for which the inhibition in vivo at 1 % worked out at 4.2%.

For the compound `CCCCCCCCCC(=O)Nc1ccc(O)cc1` [4-n-decanoylaminophenol], the inhibition in vivo at 1 % was found to be 47.4%.

As for `CCCCCCCCCCCC(=O)Nc1ccc(O)cc1` [4-n-dodecanoylaminophenol], the inhibition in vivo at 1 % worked out at 29%.

On to `CCCCCCC(=O)Nc1ccc(O)cc1` [4-n-heptanoylaminophenol], for which the inhibition in vivo at 1 % worked out at 47%.

On to `CCCCCC(=O)Nc1ccc(O)cc1` [4-n-hexanoylaminophenol], for which the inhibition in vivo at 1 % worked out at 50%.

As for `CCCCCCCCC(=O)Nc1ccc(O)cc1` [4-n-nonanoylaminophenol], the inhibition in vivo at 1 % was found to be 34.4%.

With `CCCCCCCC(=O)Nc1ccc(O)cc1` [4-n-octanoylaminophenol], the inhibition in vivo at 1 % stood at 49%.

For the compound `CCCCCCCCCCCCCC(=O)Nc1ccc(O)cc1` [4-n-tetradecanoylaminophenol, reference compound], the inhibition in vivo at 1 % turned out to be 0%.

Turning to `CCCCCCCCCCC(=O)Nc1ccc(O)cc1` [4-n-undecanoylaminophenol], the inhibition in vivo at 1 % was 38.2%.

Regarding `CCC(=O)Nc1ccc(O)cc1` [4-propionylaminophenol, reference compound], the inhibition in vivo at 1 % is -14.6%.

For the compound `CC(=O)Nc1ccc(O)cc1` [Acetaminophen, acetamidophenol, reference compound], the inhibition in vivo at 1 % is 0%.

Still in this test, the particulars now being: topical application, 1% unless otherwise stated.
Take `O=C(Nc1ccc(O)cc1)c1ccccc1O`: the “effect on AA-induced erythema (in words)” value is given as “showed activity”.

As for `O=C(Nc1ccc(O)cc1)c1ccccc1` [4-benzoylaminophenol, reference compound], the “effect on AA-induced erythema (in words)” value was “inactive”.

As for `CCCC(=O)Nc1ccc(O)cc1` [4-n-butyroylaminophenol, reference compound], the “effect on AA-induced erythema (in words)” value is “without effect”.

As to `CCCCCCCCCC(=O)Nc1ccc(O)cc1` [4-n-decanoylaminophenol], the “effect on AA-induced erythema (in words)” value is on record as “good activity”.

Take `CCCCCCCCCCCC(=O)Nc1ccc(O)cc1` [4-n-dodecanoylaminophenol]: the “effect on AA-induced erythema (in words)” value is reported as “good activity”.

Turning to `CCCCCCC(=O)Nc1ccc(O)cc1` [4-n-heptanoylaminophenol], the “effect on AA-induced erythema (in words)” value is “good activity”.

Turning to `CCCCCCCCCCCCCCCC(=O)Nc1ccc(O)cc1` [4-n-hexadecanoylaminophenol, reference compound], the “effect on AA-induced erythema (in words)” value is “without substantial effect”.

As for `CCCCCC(=O)Nc1ccc(O)cc1` [4-n-hexanoylaminophenol], the “effect on AA-induced erythema (in words)” value is “good activity”.

As for `CCCCCCCCC(=O)Nc1ccc(O)cc1` [4-n-nonanoylaminophenol], the “effect on AA-induced erythema (in words)” value was “good activity”.

Take `CCCCCCCC(=O)Nc1ccc(O)cc1` [4-n-octanoylaminophenol]: the “effect on AA-induced erythema (in words)” value is listed as “good activity”.

In the case of `CCCCCCCCCCCCCC(=O)Nc1ccc(O)cc1` [4-n-tetradecanoylaminophenol, reference compound], the “effect on AA-induced erythema (in words)” value was “without substantial effect”.

With `CCCCCCCCCCC(=O)Nc1ccc(O)cc1` [4-n-undecanoylaminophenol], the “effect on AA-induced erythema (in words)” value is listed as “good activity”.

`CCC(=O)Nc1ccc(O)cc1` [4-propionylaminophenol, reference compound]: the “effect on AA-induced erythema (in words)” value was “without substantial effect”.

With `CC(=O)Nc1ccc(O)cc1` [Acetaminophen, acetamidophenol, reference compound], the “effect on AA-induced erythema (in words)” value is given as “no significant effect”.
